Experimental data reported in PMC11589483, “Preparation and anti-colon cancer effect of a novel curcumin analogue (CA8): in vivo and in vitro evaluation” (Frontiers in Pharmacology, 2024).
Like-named read-outs stand apart in the source and are kept apart here.

Assays:
[1] = Solubility in water by HPLC; type: physicochemical; conditions: 25°C, mass of solute dissolved at saturation in 100 g of solvent
Method: The solubility of the synthesized compounds in water was determined using high performance liquid chromatography (HPLC). First, 1.000 g of each compound was accurately weighed, placed in 100 g of water, and stirred at 25°C for a period of time. Then, the reaction system was allowed to stand for 1 h. The supernatant was quantitatively taken, diluted with methanol to volume, and centrifuged, and the solubility was determined using HPLC.

[2] = system: colon cancer cells Caco-2; experiment: MTT antiproliferative assay, Caco-2; type: cell-based, human; conditions: for SI Caco2: logarithm of ratio IC50 LO2 / IC50 cancer cells; for IC50: Homo sapiens, read-out: IC50 Caco2
Method: (§1) The human cancer cell lines A549, HepG2, MCF-7, Caco-2, and HeLa and the normal human liver cell line LO2 were all obtained from Shanghai Cell Bank of China. All cells were cultured in RPMI 1640 or DMEM supplemented with 10% fetal bovine serum, 100 U/mL penicillin, and 100 μg/mL streptomycin and incubated at 37°C under 5% CO2 (HEPA incubator class100 Thermo company). The medium was replaced three times a week. Cells used in all were in the exponential growth phase.
(§2) The cell inhibition rate was evaluated using the MTT assay. Briefly, cells were seeded in a 96-well plate at a density of 3–4 × 10^3 cells per well and incubated at 37°C for 24 h. The MCACs to be tested were dissolved in dimethyl sulfoxide (DMSO, Merck, Germany) and diluted to five concentrations (3.75, 7.5, 15, 30, 60 μM/L) with RPMI 1640 medium, with each dose analyzed in quadruplicate. The concentration of DMSO was always maintained below 1‰, a concentration that is nontoxic to cells. After incubation for 24 or 48 h, MTT reagent (5 mg/mL) was added to each well and the samples were incubated for 3 h at 37°C in the dark. The absorbance of formazan crystals dissolved in 150 µL of DMSO was measured at 570 nm using a microplate reader to identify the cytotoxic effect of the analogues.

[3] = system: Caco-2 cells; experiment: Hoechst 33,258 staining; type: cell-based, human; conditions: Caco-2, 24 h
Method: Caco-2 cells were seeded in 6-well plates at a density of 5 × 10^5 cells per well and incubated overnight, followed by the addition of the prescribed concentration (4, 8, or 16 μM/L) of CA8. After 24 h of incubation, cells were fixed and stained with Hoechst 33,258.

[4] = Pharmacokinetics evaluation after gavage; type: in vivo, Sprague Dawley (SD) rats; conditions: SD rats
Method: After the evaluation of the safety of CA8, 10 male Sprague Dawley (SD) rats were randomly divided into the CA8 and CU groups for the pharmacokinetic test ([Ye et al., 2020]). The rats were subjected to 1 week of adaptation and were fasted for 6 h before the experiment. CA8 (50 mg kg^−1) and CU (50 mg kg^−1) were administered via gavage. Blood samples were collected at 0.03, 0.08, 0.16, 0.25, 0.5, 1, 2, 4, 8 and 12 h and centrifuged at 5,000 rpm for 3 min to obtain the plasma. A mixture of ethyl acetate and methanol was then added to precipitate the proteins and separate the CA8 and CU from the plasma. The samples were then analyzed using HPLC.

[5] = system: Caco-2 cells; experiment: Clonogenic assay; type: cell-based, human; conditions: 4, 8, or 16 μM/L, 6 h exposure
Method: Caco-2 cells were seeded into a 6-well plate at a density of 1 × 10^3 cells per well and incubated overnight. Then, the medium was replaced, and CA8 was added at the prescribed concentrations (4, 8, or 16 μM/L). After 6 h, the drug-containing medium was replaced with RPMI 1640 medium.
Caco-2 cells in 6-well plates were incubated for 1–2 weeks until the appearance of the colonies, followed by staining with crystal violet and incubation for 1 h at room temperature. After staining, images were captured accordingly.

[6] = system: KM mice; experiment: Acute toxicity experiment; type: in vivo; design: ALT / AST / ALP / CREA / UA / UREA: unit not given here; conditions: for tolerated dose: male, KM, 8 days; for ALP / ALT / AST / CREA / UA / UREA: serum, KM mice, Mean ± SE, n = 3
Method: All in vivo experimental protocols were approved by the animal care committee of the Southwest Medical University and conducted in strict accordance with the laboratory animal care and use of the adopted guidelines. […] Twenty-one male KM mice were obtained from the Animal Center of Southwest Medical University and subjected to 1 week of acclimatization before the experiment. Then, the mice were randomly divided into the different groups. CA8 was administered via intraperitoneal injection and oral administration to assess its safety. The oral and injection doses were 5, 50, and 300 mg/kg and 2, 10, and 50 mg/kg, respectively. The body weight of all animals was recorded every day, and their blood samples were collected to analyze relevant biochemical indicators on the 8th day of the experiment. The heart, liver, and kidney tissues of the mice were collected, embedded in paraffin, cut into slices, stained with hematoxylin and eosin (HE), and observed under a light microscope to determine potential pathological changes.

[7] = system: liver cancer cells HepG2; experiment: MTT antiproliferative assay, HepG2; type: cell-based; conditions: Homo sapiens
Method: as §1, §2

COc1cc(/C=C2\CN(C(C)C)C/C(=C\c3cc(OC)c(O)c(OC)c3)C2=O)cc(OC)c1O [CA8]
Solubility [1]: 403.44 mg/100g
SI Caco2 ([2]; 24 h): 0.02
cytotoxicity on Caco-2 cells compared with CU ([2]; 48 h): 19.2 times
SI Caco2 ([2]; 48 h): 0.07
IC50 ([2]; Caco-2, 24 h): 4.06 ± 0.89 µM
IC50 ([2]; Caco-2, 48 h): 1.71 ± 0.06 µM
nuclear morphology / apoptotic cells [3]: many apoptotic cells were observed
AUC (0-t) / bioavailability relative to CU ([4]; oral): 6.23 fold
MRT (0-t) / mean residence time relative to CU ([4]; oral): 3.35 fold
biological half-life relative to CU ([4]; oral): 2.38 fold
time after dosing until cleared from / still detected in plasma ([4]; oral 50 mg kg^−1): > 8 h
AUC(0-t) ([4]; oral (gavage) 50 mg kg^−1): 222,562.75 μg/L*min
CLz ([4]; oral (gavage) 50 mg kg^−1): 190 mL/min/kg
Vz ([4]; oral (gavage) 50 mg kg^−1): 49.53 L/kg
Cmax ([4]; male, Sprague Dawley, rat, plasma, oral (gavage) 50 mg kg^−1): 1360 ng/mL
MRT last ([4]; male, Sprague Dawley, rat, plasma, oral (gavage) 50 mg kg^−1, read-out: MRT(0-t) (converted)): 3.02 h
Tmax ([4]; male, Sprague Dawley, rat, plasma, oral (gavage) 50 mg kg^−1, read-out: Tmax (converted)): 0.167 h
half-life ([4]; male, Sprague Dawley, rat, plasma, oral (gavage) 50 mg kg^−1, read-out: t1/2z): 2.98 h
Caco-2 colony formation [5]: showed Caco-2 colony formation inhibition
liver and kidney histopathology ([6]; different doses, HE staining): no significant pathological damage
tolerated dose ([6]; mouse, in vivo, ip): ≤ 50 mg/kg
tolerated dose ([6]; mouse, in vivo, po): up to 300 mg/kg
morbidity, death, behavior ([6]; mouse, in vivo): No morbidities and deaths occurred
ALP ([6]; single injection dose 2 mg/kg): 220.33 ± 47.16
ALT ([6]; single injection dose 2 mg/kg): 59.77 ± 3.00
AST ([6]; single injection dose 2 mg/kg): 257.50 ± 114.60
CREA ([6]; single injection dose 2 mg/kg): 17.13 ± 3.30
UA ([6]; single injection dose 2 mg/kg): 171.93 ± 1.10
UREA ([6]; single injection dose 2 mg/kg): 6.84 ± 0.29
ALP ([6]; single injection dose 10 mg/kg): 175.93 ± 95.23
ALT ([6]; single injection dose 10 mg/kg): 54.87 ± 3.50
AST ([6]; single injection dose 10 mg/kg): 100.13 ± 28.26
CREA ([6]; single injection dose 10 mg/kg): 11.60 ± 1.60
UA ([6]; single injection dose 10 mg/kg): 47.57 ± 14.59
UREA ([6]; single injection dose 10 mg/kg): 6.84 ± 0.94
ALP ([6]; single injection dose 50 mg/kg): 226.47 ± 65.98
ALT ([6]; single injection dose 50 mg/kg): 48.27 ± 2.77
AST ([6]; single injection dose 50 mg/kg): 141.83 ± 50.47
CREA ([6]; single injection dose 50 mg/kg): 12.13 ± 1.12
UA ([6]; single injection dose 50 mg/kg): 55.77 ± 13.47
UREA ([6]; single injection dose 50 mg/kg): 9.19 ± 1.02
ALP ([6]; single oral dose 5 mg/kg): 208.57 ± 19.55
ALT ([6]; single oral dose 5 mg/kg): 49.70 ± 5.25
AST ([6]; single oral dose 5 mg/kg): 209.40 ± 69.21
CREA ([6]; single oral dose 5 mg/kg): 10.34 ± 0.87
UA ([6]; single oral dose 5 mg/kg): 72.27 ± 18.54
UREA ([6]; single oral dose 5 mg/kg): 6.70 ± 0.12
ALP ([6]; single oral dose 50 mg/kg): 299.77 ± 72.56
ALT ([6]; single oral dose 50 mg/kg): 61.30 ± 1.30
AST ([6]; single oral dose 50 mg/kg): 269.23 ± 67.81
CREA ([6]; single oral dose 50 mg/kg): 12.50 ± 2.78
UA ([6]; single oral dose 50 mg/kg): 124.17 ± 19.83
UREA ([6]; single oral dose 50 mg/kg): 6.53 ± 0.65
ALP ([6]; single oral dose 300 mg/kg): 266.97 ± 26.38
ALT ([6]; single oral dose 300 mg/kg): 44.63 ± 11.95
AST ([6]; single oral dose 300 mg/kg): 277.57 ± 160.53
CREA ([6]; single oral dose 300 mg/kg): 12.90 ± 1.61
UA ([6]; single oral dose 300 mg/kg): 128.03 ± 33.61
UREA ([6]; single oral dose 300 mg/kg): 7.80 ± 1.27
blood parameters ALT, AST, ALP, CREA, UA, UREA vs control ([6]; single oral and injection doses): no significant difference
IC50 ([7]; HepG2, 24 h): 1.79 ± 1.32 µM
IC50 ([7]; HepG2, 48 h): 1.84 ± 0.33 µM
